In US20090069370A1, “AZACYCLYLISOQUINOLINONE AND ISOINDOLINONE DERIVATIVES AS HISTAMINE-3 ANTAGONISTS” (Wyeth, priority 2007, published 2009):
Structures can show the parent of a compound that is named as a salt.

Row | melting point [°C] | Compound
1 | 206 to 208 | CNC(=O)c1ccc(Oc2ccc3c(c2)CCN([C@@H]2CCN(C4CCC4)C2)C3=O)cc1 (as salt: hydrochloride) [Example 33, 4-({2-[(3R)-1-cyclobutylpyrrolidin-3-yl]-1-oxo-1,2,3,4-tetrahydroisoquinolin-6-yl}oxy)-N-methylbenzamide]
2 | 105 to 106 | N#Cc1ccc(-c2ccc3c(c2)CN(C2CCNCC2)C3=O)cc1 (as salt: hydrochloride) [Example 22, 4-(1-oxo-2-piperidin-4-yl-2,3-dihydro-1H-isoindol-5-yl)benzonitrile hydrochloride]
3 | 274 to 275 | CC(C)N1CCC[C@@H](N2CCc3cc(-c4ccc(C(=O)N5CCCC5)cc4)ccc3C2=O)C1 (as salt: hydrochloride) [Example 72, 2-[(3R)-1-isopropylpiperidin-3-yl]-6-[4-(pyrrolidin-1-ylcarbonyl)phenyl]-3,4-dihydroisoquinolin-1(2H)-one]
4 | 211 to 212 | CN(C)C(=O)c1ccc(-c2ccc3c(c2)CCN([C@@H]2CCN(C4CCC4)C2)C3=O)cc1 (as salt: hydrochloride) [Example 46, 4-{2-[(3R)-1-cyclobutylpyrrolidin-3-yl]-1-oxo-1,2,3,4-tetrahydroisoquinolin-6-yl}-N,N-dimethylbenzamide]
5 | 223 to 224 | CNC(=O)c1ccc(Oc2ccc3c(c2)CCN([C@@H]2CCN(C4CCCC4)C2)C3=O)cc1 (as salt: hydrochloride) [Example 37, 4-({2-[(3R)-1-cyclopentylpyrrolidin-3-yl]-1-oxo-1,2,3,4-tetrahydroisoquinolin-6-yl}oxy)-N-methylbenzamide]
6 | > 230 | O=C(NC1CCC1)c1ccc(-c2ccc3c(c2)CCN([C@@H]2CCN(C4CCC4)C2)C3=O)c(F)c1 (as salt: hydrochloride) [Example 74, N-cyclobutyl-4-{2-[(3R)-1-cyclobutylpyrrolidin-3-yl]-1-oxo-1,2,3,4-tetrahydroisoquinolin-6-yl}-3-fluorobenzamide]
7 | > 300 | O=C(NC1CCC1)c1ccc(Oc2ccc3c(c2)CCN(C2CCN(C4CCC4)CC2)C3=O)cc1 (as salt: hydrochloride) [Example 8, N-Cyclobutyl-4-{[2-(1-cyclobutylpiperidin-4-yl)-1-oxo-1,2,3,4-tetrahydroisoquinolin-6-yl]oxy}benzamide]
8 | 289 to 291 | O=C(NC1CCCC1)c1ccc(COc2ccc3c(c2)CCN(C2CCN(C4CCC4)CC2)C3=O)cc1 (as salt: hydrochloride) [Example 21, 4-({[2-(1-Cyclobutylpiperidin-4-yl)-1-oxo-1,2,3,4-tetrahydroisoquinolin-6-yl]oxy}methyl)-N-cyclopentylbenzamide]
9 | > 300 | O=C(c1ccc(-c2ccc3c(c2)CCN(C2CCN(C4CCC4)CC2)C3=O)cc1)N1CCCC1 (as salt: hydrochloride) [Example 65, 2-(1-cyclobutylpiperidin-4-yl)-6-[4-(pyrrolidin-1-ylcarbonyl)phenyl]-3,4-dihydroisoquinolin-1(2H)-one]
10 | > 200 | O=C(NC1CC1)c1ccc(-c2ccc3c(c2)CCN([C@@H]2CCN(C4CCC4)C2)C3=O)c(F)c1 (as salt: hydrochloride) [Example 81, 4-{2-[(3R)-1-cyclobutylpyrrolidin-3-yl]-1-oxo-1,2,3,4-tetrahydroisoquinolin-6-yl}-N-cyclopropyl-3-fluorobenzamide]
11 | 209 to 210 | CN(C)C(=O)c1ccc(-c2ccc3c(c2)CCN([C@@H]2CCN(C4CCC4)C2)C3=O)c(F)c1 (as salt: hydrochloride) [Example 78, 4-{2-[(3R)-1-cyclobutylpyrrolidin-3-yl]-1-oxo-1,2,3,4-tetrahydroisoquinolin-6-yl}-3-fluoro-N,N-dimethylbenzamide]
12 | 220 to 221 | O=C(c1ccc(-c2ccc3c(c2)CN([C@@H]2CCN(C4CCC4)C2)C3=O)cc1)N1CCCC1 (as salt: hydrochloride) [Example 92, (R)-2-(1-cyclobutylpyrrolidin-3-yl)-5-(4-(pyrrolidine-1-carbonyl)-phenyl)isoindolin-1-one hydrochloride]
13 | 260.5 to 262 | O=C(c1ccc(-c2ccc3c(c2)CCN([C@@H]2CCCN(C4CCC4)C2)C3=O)cc1)N1CCCC1 (as salt: hydrochloride) [Example 70, 2-[(3R)-1-cyclobutylpiperidin-3-yl]-6-[4-(pyrrolidin-1-ylcarbonyl)phenyl]-3,4-dihydroisoquinolin-1(2H)-one]
14 | 124 to 125 | O=C(NC1CCCC1)c1ccc2c(c1)CCN([C@@H]1CCN(C3CCC3)C1)C2=O (as salt: hydrochloride) [Example 88, 2-[(3R)-1-cyclobutylpyrrolidin-3-yl]-N-cyclopentyl-1-oxo-1,2,3,4-tetrahydroisoquinoline-6-carboxamide hydrochloride]
15 | 197 to 198 | O=C(c1ccc(-c2ccc3c(c2)CCN(C2CCN(Cc4ccccc4)CC2)C3=O)cc1)N1CCCC1 [Example 63, 2-(1-benzylpiperidin-4-yl)-6-(4-(pyrrolidine-1-carbonyl)phenyl)-3,4-dihydroisoquinolin-1(2H)-one]
16 | > 255 | CCNC(=O)c1ccc(-c2ccc3c(c2)CCN([C@@H]2CCN(C(C)C)C2)C3=O)c(F)c1 (as salt: hydrochloride) [Example 86, N-ethyl-3-fluoro-4-{2-[(3R)-1-isopropylpyrrolidin-3-yl]-1-oxo-1,2,3,4-tetrahydroisoquinolin-6-yl}benzamide]

Row | melting point [°C] | Compound
17 | 284 to 286 | O=C(c1ccc(COc2ccc3c(c2)CCN(C2CCN(C4CCC4)CC2)C3=O)cc1)N1CCCC1 (as salt: hydrochloride) [Example 20, 2-(1-Cyclobutylpiperidin-4-yl)-6-{[4-(pyrrolidin-1-ylcarbonyl)benzyl]oxy}-3,4-dihydroisoquinolin-1(2H)-one]
18 | 249 to 251 | CCN(CC)C(=O)c1ccc(Oc2ccc3c(c2)CCN(C2CCN(C4CCC4)CC2)C3=O)cc1 (as salt: hydrochloride) [Example 11, 4-{[2-(1-Cyclobutylpiperidin-4-yl)-1-oxo-1,2,3,4-tetrahydroisoquinolin-6-yl]oxy}-N,N-diethylbenzamide]
19 | 322 to 323 | CN1CCC(N2Cc3cc(-c4ccc(C#N)cc4)ccc3C2=O)CC1 (as salt: hydrochloride) [Example 23]
20 | 307 to 309 | CCNC(=O)c1ccc(COc2ccc3c(c2)CCN(C2CCN(C4CCC4)CC2)C3=O)cc1 (as salt: hydrochloride) [Example 17, 4-({[2-(1-Cyclobutylpiperidin-4-yl)-1-oxo-1,2,3,4-tetrahydroisoquinolin-6-yl]oxy}methyl)-N-ethylbenzamide]
21 | > 275 | CNC(=O)c1ccc(-c2ccc3c(c2)CCN([C@@H]2CCN(C(C)C)C2)C3=O)cc1 (as salt: hydrochloride) [Example 82]
22 | 292 to 294 | CN(C)C(=O)c1ccc(COc2ccc3c(c2)CCN(C2CCN(C4CCC4)CC2)C3=O)cc1 (as salt: hydrochloride) [Example 18, 4-({[2-(1-Cyclobutylpiperidin-4-yl)-1-oxo-1,2,3,4-tetrahydroisoquinolin-6-yl]oxy}methyl)-N,N-dimethylbenzamide]
23 | 307 to 309 | O=C(NC1CC1)c1ccc(Oc2ccc3c(c2)CCN(C2CCN(C4CCC4)CC2)C3=O)cc1 (as salt: hydrochloride) [Example 7, 4-{[2-(1-Cyclobutylpiperidin-4-yl)-1-oxo-1,2,3,4-tetrahydroisoquinolin-6-yl]oxy}-N-cyclopropylbenzamide]
24 | 153 to 154 | CCNC(=O)c1ccc(Oc2ccc3c(c2)CCN([C@@H]2CCN(C4CCC4)C2)C3=O)cc1 (as salt: hydrochloride) [Example 34, 4-({2-[(3R)-1-cyclobutylpyrrolidin-3-yl]-1-oxo-1,2,3,4-tetrahydroisoquinolin-6-yl}oxy)-N-ethylbenzamide]
25 | 300 to 302 | CCCN1CCC(N2Cc3cc(-c4ccc(C#N)cc4)ccc3C2=O)CC1 (as salt: hydrochloride) [Example 25, 4-[1-Oxo-2-(1-propylpiperidin-4-yl)-2,3-dihydro-1H-isoindol-5-yl]benzonitrile]
26 | > 200 | O=C(c1ccc(-c2ccc3c(c2)CCN([C@@H]2CCN(C4CCCC4)C2)C3=O)cc1)N1CCCC1 (as salt: hydrochloride) [Example 43, 2-[(3R)-1-cyclopentylpyrrolidin-3-yl]-6-[4-(pyrrolidin-1-ylcarbonyl)phenyl]-3,4-dihydroisoquinolin-1(2H)-one]
27 | 253 to 255 | O=C(c1ccc(Oc2ccc3c(c2)CCN(C2CCN(C4CCC4)CC2)C3=O)cc1)N1CCCC1 (as salt: hydrochloride) [Example 12, 2-(1-Cyclobutylpiperidin-4-yl)-6-[4-(pyrrolidin-1-ylcarbonyl)phenoxy]-3,4-dihydroisoquinolin-1(2H)-one]
28 | 269 to 270 | COC(=O)c1ccc(Oc2ccc3c(c2)CCN(C2CCN(C4CCC4)CC2)C3=O)cc1 (as salt: hydrochloride) [Example 1, methyl 4-{[2-(1-Cyclobutylpiperidin-4-yl)-1-oxo-1,2,3,4-tetrahydroisoquinolin-6-yl]oxy}benzoate]
29 | 268 to 272 | CCNC(=O)c1ccc(-c2ccc3c(c2)CCN([C@@H]2CCN(C4CCC4)C2)C3=O)cc1 (as salt: hydrochloride) [Example 45, 4-{2-[(3R)-1-cyclobutylpyrrolidin-3-yl]-1-oxo-1,2,3,4-tetrahydroisoquinolin-6-yl}-N-ethylbenzamide]
30 | > 205 | CCNC(=O)c1ccc(-c2ccc3c(c2)CCN([C@@H]2CCN(C4CCC4)C2)C3=O)c(F)c1 (as salt: hydrochloride) [Example 77, 4-{2-[(3R)-1-cyclobutylpyrrolidin-3-yl]-1-oxo-1,2,3,4-tetrahydroisoquinolin-6-yl}-N-ethyl-3-fluorobenzamide]
31 | 249 to 250 | O=C(c1ccc(-c2ccc3c(c2)CCN([C@@H]2CCN(Cc4cccs4)C2)C3=O)cc1)N1CCCC1 (as salt: hydrochloride) [Example 62, 6-[4-(pyrrolidin-1-ylcarbonyl)phenyl]-2-[(3R)-1-(thiophen-2-ylmethyl)pyrrolidin-3-yl]-3,4-dihydroisoquinolin-1(2H)-one]
